In ChEMBL document CHEMBL3885861, “Open TG-GATES”:

Organism: Rattus norvegicus
Assay: Open TG-GATES - Regimen: Single
Type: toxicity, organism-based, Sprague-Dawley
Design: regimen Single, gender Male, age 6 weeks
Conditions: in vivo, po, 0 mg/kg, route gavage, dose level Control; for APTT / Bas / Eos / Fbg / Hb / Ht / Lym / MCH / MCHC / MCV / Mono / Neu / PT / Plat / RBC / Ret / WBC: tissue Blood; for KIDNEY_L / KIDNEY_R / KIDNEY_TOTAL: tissue Kidney; for LIVER: tissue Liver; for A/G / ALP / ALT / AST / BUN / CRE / Ca / Cl / DBIL / GLC / IP / K / LDH / Na / PL / RALB / TBIL / TC / TG / TP / gamma-GTP: tissue Plasma

## O=c1ccc2ccccc2o1 [COUMARIN]
3 h
  TERMINAL_BW: 182.8 g
  APTT: 16.6 s
  Bas: 0%
  Eos: 0.6%
  Fbg: 205.4 mg/dL
  Hb: 13.5 g/dL
  Ht: 40%
  Lym: 83.8%
  MCH: 22.1 pg
  MCHC: 33.6%
  MCV: 65.8 fL
  Mono: 4.8%
  Neu: 11%
  PT: 12.3 s
  Plat: 106.1 x10_4/uL
  RBC: 608.6 x10_4/ul
  Ret: 8.9%
  WBC: 102.6 x10_2/uL
  KIDNEY_L: 0.8 g
  KIDNEY_R: 0.8 g
  KIDNEY_TOTAL: 1.7 g
  LIVER: 8.4 g
  A/G: 2.1
  ALP: 1014.2 IU/L
  ALT: 43 IU/L
  AST: 69.4 IU/L
  BUN: 11.2 mg/dL
  CRE: 0.5 mg/dL
  Ca: 10.9 mg/dL
  Cl: 104.8 meq/L
  DBIL: 0.026 mg/dL
  GLC: 189.4 mg/dL
  IP: 10.7 mg/dL
  K: 4.7 meq/L
  LDH: 76.6 IU/L
  Na: 138.6 meq/L
  PL: 158.2 mg/dL
  RALB: 4 g/dL
  TBIL: 0.3 mg/dL
  TC: 81.4 mg/dL
  TG: 99.4 mg/dL
  TP: 5.8 g/dL
  gamma-GTP: 1.6 IU/L
6 h
  TERMINAL_BW: 179.5 g
  APTT: 16.3 s
  Bas: 0%
  Eos: 0.8%
  Fbg: 205.8 mg/dL
  Hb: 13.5 g/dL
  Ht: 40.4%
  Lym: 75.4%
  MCH: 21.8 pg
  MCHC: 33.4%
  MCV: 65.4 fL
  Mono: 7.8%
  Neu: 16.6%
  PT: 12.4 s
  Plat: 108.2 x10_4/uL
  RBC: 617.2 x10_4/ul
  Ret: 9.3%
  WBC: 115.3 x10_2/uL
  KIDNEY_L: 0.8 g
  KIDNEY_R: 0.9 g
  KIDNEY_TOTAL: 1.7 g
  LIVER: 7.7 g
  A/G: 2.1
  ALP: 982 IU/L
  ALT: 36.4 IU/L
  AST: 66.6 IU/L
  BUN: 11.4 mg/dL
  CRE: 0.5 mg/dL
  Ca: 10.4 mg/dL
  Cl: 107.8 meq/L
  DBIL: 0.002 mg/dL
  GLC: 184.6 mg/dL
  IP: 11.3 mg/dL
  K: 5.4 meq/L
  LDH: 96.8 IU/L
  Na: 139.4 meq/L
  PL: 144.4 mg/dL
  RALB: 3.8 g/dL
  TBIL: 0.3 mg/dL
  TC: 82 mg/dL
  TG: 52.2 mg/dL
  TP: 5.6 g/dL
  gamma-GTP: 1.4 IU/L
9 h
  TERMINAL_BW: 180 g
  APTT: 16 s
  Bas: 0%
  Eos: 0.8%
  Fbg: 206.8 mg/dL
  Hb: 13.1 g/dL
  Ht: 39.4%
  Lym: 79.2%
  MCH: 21.9 pg
  MCHC: 33.3%
  MCV: 65.9 fL
  Mono: 6.4%
  Neu: 14%
  PT: 12.4 s
  Plat: 117.4 x10_4/uL
  RBC: 598.6 x10_4/ul
  Ret: 9.2%
  WBC: 106.8 x10_2/uL
  KIDNEY_L: 0.9 g
  KIDNEY_R: 0.9 g
  KIDNEY_TOTAL: 1.7 g
  LIVER: 7.4 g
  A/G: 2.1
  ALP: 975.8 IU/L
  ALT: 31.2 IU/L
  AST: 59.4 IU/L
  BUN: 12.4 mg/dL
  CRE: 0.5 mg/dL
  Ca: 10.7 mg/dL
  Cl: 106 meq/L
  DBIL: 0.022 mg/dL
  GLC: 190.8 mg/dL
  IP: 11 mg/dL
  K: 5.1 meq/L
  LDH: 82.2 IU/L
  Na: 138.2 meq/L
  PL: 139 mg/dL
  RALB: 3.7 g/dL
  TBIL: 0.3 mg/dL
  TC: 79.4 mg/dL
  TG: 36.6 mg/dL
  TP: 5.5 g/dL
  gamma-GTP: 1.6 IU/L
24 h
  TERMINAL_BW: 191.8 g
  APTT: 16.1 s
  Bas: 0%
  Eos: 0.8%
  Fbg: 205.4 mg/dL
  Hb: 13.2 g/dL
  Ht: 39.3%
  Lym: 77.2%
  MCH: 21.8 pg
  MCHC: 33.4%
  MCV: 65.1 fL
  Mono: 8.8%
  Neu: 13.6%
  PT: 12.5 s
  Plat: 106.5 x10_4/uL
  RBC: 604.2 x10_4/ul
  Ret: 8.3%
  WBC: 132 x10_2/uL
  KIDNEY_L: 0.9 g
  KIDNEY_R: 0.9 g
  KIDNEY_TOTAL: 1.8 g
  LIVER: 9 g
  A/G: 1.9
  ALP: 985.2 IU/L
  ALT: 37 IU/L
  AST: 64.4 IU/L
  BUN: 16.2 mg/dL
  CRE: 0.5 mg/dL
  Ca: 10.8 mg/dL
  Cl: 105.4 meq/L
  DBIL: 0 mg/dL
  GLC: 184.4 mg/dL
  IP: 7.9 mg/dL
  K: 5.5 meq/L
  LDH: 92.6 IU/L
  Na: 137.8 meq/L
  PL: 138 mg/dL
  RALB: 3.7 g/dL
  TBIL: 0.3 mg/dL
  TC: 76 mg/dL
  TG: 82.8 mg/dL
  TP: 5.6 g/dL
  gamma-GTP: 1.2 IU/L
